In patent US20250019373A1, “ARYL OR HETEROARYL DERIVATIVE, AND PHARMACEUTICAL COMPOSITION COMPRISING SAME AS ACTIVE INGREDIENT FOR PREVENTION OR TREATMENT OF KINASE-RELATED DISEASES” (VORONOI INC., priority 2021, published 2025) one finds EC50 data, which are given here for 23 molecules.

pEC50: −log10 of the molar value.

This experiment deals with HT-29 cells. Nature of the experiment: Cell necrosis inhibitory activity under necroptosis-inducing conditions (TNF-α, Z-VAD-FMK, LCL161) in HT-29 cells, Cell Titer-Glo. Format: cell-based. Particulars: Homo sapiens, 100 ng/mL TNF-α + 25 μM Z-VAD-FMK + Smac mimetic LCL161, 24 hours, cell viability. On the procedure:
To evaluate the cell necrosis inhibitory activity of the compound according to the present invention, an experiment was conducted as follows.
To evaluate the efficacy of inhibiting cell necrosis under TNF-α-mediated cell death-inducing conditions, a HT-29 cell line (Korean Cell Line Bank Accession No. #30038) was cultured in RPMI-1640 (HyClone #SH3027.01) medium containing 10% fetal bovine serum (FBS) and 1% penicillin/streptomycin to analyze cell viability. More specifically, for testing, the cell line was seeded in a 96-well flat bottom plate (Corning #3903) at a concentration of 10,000 cells/well and incubated at 37° C. under a 5% CO2 condition for 24 hours. Each well was treated with 100 ng/mL TNF-α, 25 μM pan-caspase inhibitor (Z-VAD-FMK, Selleckchem #S8102), and 10 µM Smac mimetic LCL161 (Selleckchem #S7009) and allowed to react for 10 minutes. The compounds of Examples were treated at 11 concentrations (the highest concentration being 0.1 μM or 1 μM) with a 3-fold concentration gradient, and as a control, dimethyl sulfoxide (DMSO) was treated at a concentration of 0.05% (v/v), which is the same as those when the compounds were treated. The treated cells were incubated for 24 hours. To confirm the degree of cell viability, 100 μL of Cell Titer-Glo (Promega #G7573) was added to the medium of the cultured cells and cultured for additional 10 minutes, and then luminescence was measured using a microplate reader. Based on the […] of control cells that were not treated with the compound, the degree of cell necrosis inhibitory activity was calculated according to the treatment concentration of each compound. Here, the concentration at which the cell necrosis inhibitory activity was 50% was determined as an EC50 (nM) value and calculated using Prism (ver. 8.4.3 #GraphPad) software.
The term pEC50 denotes the EC50 on a negative log10 scale, so that one unit is a factor of ten. On to `Cc1ncc(-c2ccn3nc(N)nc3c2)cc1NC(=O)N1OCC[C@H]1c1ccccc1` [Example 50, (S)-N-(5-(2-amino-[1,2,4]triazolo[1,5-a]pyridin-7-yl)-2-methylpyridin-3-yl)-3-phenylisoxazolidine-2-carboxamide], for which the pEC50 is 8.89.

With `COc1ccc(-c2ccc3nc(NC(C)=O)sc3c2)cc1NC(=O)N1OCC[C@H]1c1ccccc1` [Example 27, (S)-N-(5-(2-acetamidobenzo[d]thiazol-6-yl)-2-methoxyphenyl)-3-phenylisoxazolidine-2-carboxamide], the pEC50 was 9.00.

As for `COc1ncc(-c2cc(C(F)(F)F)c3c(N)ncnn23)cc1NC(=O)N1OCC[C@H]1c1ccccc1` [Example 129, (S)-N-(5-(4-amino-5-(trifluoromethyl)pyrrolo[2,1-f][1,2,4]triazin-7-yl)-2-methoxypyridin-3-yl)-3-phenylisoxazolidine-2-carboxamide], the pEC50 was 8.44.

For the molecule `Cc1ccc(-c2ccc3nc(N)nn3c2)cc1NC(=O)N1OCC[C@H]1c1cccc(F)c1` [Example 60, (S)-N-(5-(2-amino-[1,2,4]triazolo[1,5-a]pyridin-6-yl)-2-methylphenyl)-3-(3-fluorophenyl)isoxazolidine-2-carboxamide], the pEC50 was 9.40.

As for `CN(C)C1CCC(NC(=O)c2n[nH]c3cc(-c4cccc(NC(=O)N5OCC[C@H]5c5ccccc5)c4)ccc23)CC1` (stereo partly drawn) [Example 20, (S)-N-(3-(3-((4-(dimethylamino)cyclohexyl)carbamoyl)-1H-indazol-6-yl)phenyl)-3-phenylisoxazolidine-2-carboxamide], the pEC50 is 9.52.

Regarding `Cc1ccc(-c2ccn3nc(N)cc3c2)cc1NC(=O)N1CCO[C@@H](c2ccccc2)C1` [Example 137, (S)-N-(5-(2-aminopyrazolo[1,5-a]pyridin-5-yl)-2-methylphenyl)-2-phenylmorpholine-4-carboxamide], the pEC50 was 7.31.

`Cc1cc(F)c(-c2ccc3nc(N)nn3c2)cc1NC(=O)N1OCC[C@H]1c1ccccc1` [Example 34, (S)-N-(5-(2-amino-[1,2,4]triazolo[1,5-a]pyridin-6-yl)-4-fluoro-2-methylphenyl)-3-phenylisoxazolidine-2-carboxamide]: the pEC50 is 9.30.

Take `Cc1ccc(-c2ccc3ncsc3n2)cc1NC(=O)N1OCC[C@H]1c1ccccc1` [Example 131, (S)-N-(2-methyl-5-(thiazolo[5,4-b]pyridin-5-yl)phenyl)-3-phenylisoxazolidine-2-carboxamide]: the pEC50 is 8.40.

Turning to `Cc1ccc(-c2csc3c(N)ncnc23)cc1NC(=O)N1OCC[C@H]1c1ccccc1` [Example 122, (S)-N-(5-(4-aminothieno[3,2-d]pyrimidine-7-yl)-2-methylphenyl)-3-phenylisoxazolidine-2-carboxamide], the pEC50 is 7.69.

As to `Cc1ncc(-c2ccn3nc(N)nc3c2)cc1NC(=O)N1OCC[C@H]1c1ccc(C#N)cc1` [Example 70, (S)-N-(5-(2-amino-[1,2,4]triazolo[1,5-a]pyridin-7-yl)-2-methylpyridin-3-yl)-3-(4-cyanophenyl)isoxazolidine-2-carboxamide], the pEC50 is 8.28.

Consider `Cc1ncc(-c2ccc3nc(NC(=O)C4CC4)nn3c2)cc1NC(=O)N1OCC[C@H]1c1ccccc1` [Example 36, (S)-N-(5-(2-(cyclopropanecarboxamido)-[1,2,4]triazolo[1,5-a]pyridin-6-yl)-2-methylpyridin-3-yl)-3-phenylisoxazolidine-2-carboxamide], for which the pEC50 was 9.22.

Consider `COCC(=O)Nc1cn2nc(-c3cnc(OC)c(NC(=O)N4OCC[C@H]4c4ccccc4)c3)ccc2n1` [Example 6, (S)-N-(2-methoxy-5-(2-(2-methoxyacetamido)imidazo[1,2-b]pyridazin-6-yl)pyridin-3-yl)-3-phenylisoxazolidine-2-carboxamide], for which the pEC50 is 9.05.

For the molecule `Cc1ncc(-c2ccc3nc(N)nn3c2)cc1NC(=O)N1OCC[C@H]1c1cc(F)cc(C(F)(F)F)c1` [Example 43, (S)-N-(5-(2-amino-[1,2,4]triazolo[1,5-a]pyridin-6-yl)-2-methylpyridin-3-yl)-3-(3-fluoro-5-(trifluoromethyl)phenyl)isoxazolidine-2-carboxamide], the negative logarithm of the EC50 (pEC50) was 8.14.

On to `COc1ncc(-c2ccc3nnn(C(C)C)c3c2)cc1NC(=O)N1OCC[C@H]1c1ccccc1` [Example 12, (S)-N-(5-(1-isopropyl-1H-benzo[d][1,2,3]triazol-6-yl)-2-methoxypyridin-3-yl)-3-phenylisoxazolidine-2-carboxamide], for which the pEC50 was 7.86.

Consider `CNC(=O)c1n[nH]c2cc(-c3cnc(OC)c(NC(=O)N4OCC[C@H]4c4ccccc4)c3)ccc12` [Example 22, (S)-N-(2-methoxy-5-(3-(methylcarbamoyl)-1H-indazol-6-yl)pyridin-3-yl)-3-phenylisoxazolidine-2-carboxamide], for which the pEC50 is 9.52.

On to `Cc1ccc(-c2ccn3ncnc3c2)cc1NC(=O)N1OCC[C@H]1c1ccccc1` [Example 102, (S)-N-(5-([1,2,4]triazolo[1,5-a]pyridin-7-yl)-2-methylphenyl)-3-phenylisoxazolidine-2-carboxamide], for which the pEC50 was 9.05.

As for `O=C(Nc1cn2nc(-c3cccc(NC(=O)N4OCC[C@H]4c4ccccc4)c3)ccc2n1)C1CC1` [Example 2, (S)-N-(3-(2-(cyclopropanecarboxamido)imidazo[1,2-b]pyridazin-6-yl)phenyl)-3-phenylisoxazolidine-2-carboxamide], the pEC50 was 9.70.

Regarding `Nc1nc2cc(-c3ccc(F)c(NC(=O)N4OCC[C@H]4c4ccccc4)c3)ccn2n1` [Example 123, (S)-N-(5-(2-amino-[1,2,4]triazolo[1,5-a]pyridin-7-yl)-2-fluorophenyl)-3-phenylisoxazolidine-2-carboxamide], the pEC50 was 9.52.

For `Cc1ncc(-c2csc3c(N)ncnc23)cc1NC(=O)N1OCC[C@H]1c1ccccc1` [Example 121, (S)-N-(5-(4-aminothieno[3,2-d]pyrimidine-7-y1)-2-methylpyridin-3-yl)-3-phenylisoxazolidine-2-carboxamide], the pEC50 is 7.93.

Turning to `CC(=O)Nc1cn2nc(-c3cnc(C)c(NC(=O)N4OCC[C@H]4c4ccccc4)c3)ccc2n1` [Example 11, (S)-N-(5-(2-acetamidoimidazo[1,2-b]pyridazin-6-yl)-2-methylpyridin-3-yl)-3-phenylisoxazolidine-2-carboxamide], the pEC50 was 9.05.

`CC(=O)Nc1cn2nc(-c3cccc(NC(=O)N4OCC[C@H]4c4ccccc4)c3)ccc2n1` [Example 1, (S)-N-(3-(2-acetamidoimidazo[1,2-b]pyridazin-6-yl)phenyl)-3-phenylisoxazolidine-2-carboxamide]: the negative-log EC50 (pEC50) is 9.05.

Regarding `COc1ncc(-c2ccc3nc(NC(=O)CO)cn3n2)cc1NC(=O)N1OCC[C@H]1c1ccccc1` [Example 5, (S)-N-(5-(2-(2-hydroxyacetamido)imidazo[1,2-b]pyridazin-6-yl)-2-methoxypyridin-3-yl)-3-phenylisoxazolidine-2-carboxamide], the pEC50 was 8.54.

On to `Cc1ncc(-c2ccc3nc(N)nn3c2)cc1NC(=O)N1OCC[C@H]1c1ccc(Cl)c(C(F)(F)F)c1` [Example 44, (S)-N-(5-(2-amino-[1,2,4]triazolo[1,5-a]pyridin-6-yl)-2-methylpyridin-3-yl)-3-(4-chloro-3-(trifluoromethyl)phenyl)isoxazolidine-2-carboxamide], for which the negative logarithm of the EC50 (pEC50) is 8.39.
